Data reported in patent US8138148B2, “GDNF derived peptides” (Copenhagen University, priority 2005, dated 2012).

Key:
Ig1-2 modules of NCAM = assay: Surface plasmon resonance (SPR) binding analysis, NCAM Ig1-2; details: immobilized receptor protein, 25° C., PBS pH 7.4
Protocol: (§1) Analysis of binding was performed employing a BIAcoreX instrument (Biosensor AB, Uppsala, Sweden) at 25° C. using 10 mM pH 7.4 sodium phosphate containing 150 mM NaCl as running buffer (phosphate-buffered saline, PBS). The flow-rate was 5 μl/min. Data were analysed by non-linear curve-fitting using the manufacturer's software. The receptor proteins, e.g. NCAM Ig1-Ig2 and GFR proteins, were immobilized on a sensor chip CM5 using an amine coupling kit (Biosensor AB) as follows: the chip was activated by 20 μl activation solution; the protein was immobilized using 12 μl 20 μg/ml protein in 10 mM sodium phosphate buffer pH 6.0; the chip was blocked by 35 μl blocking solution. Various peptides at the indicated concentrations were injected into the sensor chip. The curve corresponding to the difference between binding to receptor and a blank chip was used for analysis.

GFRα1 receptor = target: T1, GFRα1 receptor (Homo sapiens, UniProt P56159); assay: Surface plasmon resonance (SPR) binding analysis, GFRα1; details: immobilized receptor protein, 25° C., PBS pH 7.4
T1 sequence (P56159 25-429): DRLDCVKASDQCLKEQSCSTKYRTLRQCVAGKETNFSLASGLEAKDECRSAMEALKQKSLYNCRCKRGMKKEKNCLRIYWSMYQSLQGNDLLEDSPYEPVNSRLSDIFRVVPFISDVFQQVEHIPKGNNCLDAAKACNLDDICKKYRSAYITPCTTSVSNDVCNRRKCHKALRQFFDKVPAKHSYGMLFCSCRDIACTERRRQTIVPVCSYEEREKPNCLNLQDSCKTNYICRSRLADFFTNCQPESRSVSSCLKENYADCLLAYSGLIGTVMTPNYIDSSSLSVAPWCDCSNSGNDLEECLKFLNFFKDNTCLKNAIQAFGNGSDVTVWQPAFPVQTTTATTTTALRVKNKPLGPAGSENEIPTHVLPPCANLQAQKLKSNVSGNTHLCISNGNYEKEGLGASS
Protocol: as §1

hippocampal neurons = assay: Neurite outgrowth assay, co-cultures of hippocampal neurons on control fibroblasts or NCAM-expressing fibroblasts; type: cell-based, rat; details: 24 hours
Protocol: Two different versions of the neurite outgrowth assay were used in this study, monocultures and co-cultures.
In monocultures, neurons are grown directly on plastic and the only neuritogenic stimulus is the one presented by the added substance. In co-cultures, neurons are grown on top of a confluent monolayer of fibroblasts expressing NCAM-140 (LBN110) or NCAM-negative control fibroblasts (LVN212). NCAM on the neurons interact with NCAM on LBN110 cells thereby stimulating neurite outgrowth from the neurons. This system thus permits the study of NCAM-NCAM interactions and interactions between NCAM and other molecules.
For all experiments cells were grown in neurobasal medium with supplements as described above in a final volume of 300 μl/well in 8-well LabTek® Permanox Chamber slides or 500 μl/well in 4-well LabTek® Permanox Chamber slides.
For cocultures, L-cells were seeded in 8-well LabTek® Permanox Chamber slides at a density of 100.000 cells/well, except for transfection experiments where cells were seeded in 4-well LabTek® Permanox Chamber slides at a density of 200.000 cells/well. L-cells were grown for 24 hours in DMEM supplemented with 10% (v/v) FCS, 1% (v/v) glutamax, 100 U/ml penicillin, 100 μg/ml streptomycin, 2.5 μg/ml fungizone, and 567 μg/ml neomycin (G418), followed by washing twice in neurobasal medium with supplements before primary hippocampal neurons were seeded at a density of 7.000 cells/well in 8-well slides or 20.000 cells/well in 4-well slides.
To evaluate the effect peptides on neurite outgrowth, GDNF and the peptides, G1, G2, G3, A1, A2, A3, N1, N2 and N3 were diluted to the appropriate concentrations and added to the neurons approximately 10 minutes after seeding. Medium alone was added to controls, and cells were incubated for 24 hours.
Neurite outgrowth experiments were terminated after the stated time by fixating the cells. To visualize neurons and their neurites, immunostaining of GAP-43 was performed. This staining is specific for neurons. Transfected cells and their neurites should be visible without immunostaining due to the fluorescence emitted by GFP. […] GFP is a cytoplasmic protein, and since thin neurites only contain a small volume of cytoplasm, GFP is only found in small amounts in most neurites. Therefore, a double-staining protocol, where cells were immunostained against GFP and GAP-43, was adopted. This protocol allowed the identification of transfected cells on the basis of GFP-staining in combination with visualization of neurites based on GAP-43-staining.
Without prior removal of the medium 300 μl/well (8-well slides) or 500 μl/well (4-well slides) of a PBS solution containing 0.4 mM CaCl2, 0.05 M sucrose and 8% (v/v) formaldehyde was added to the cultures for 20 minutes. Cells were then washed 10 minutes in PBS followed by washing in PBS with 1% (w/v) BSA for 20 minutes, after which cells were incubated with primary antibodies overnight at 4° C.
Rabbit anti-rat GAP-43 antibodies were diluted 1:1000 for staining of untransfected cells and 1:2000 for staining of transfected cells. Mouse anti-GFP antibodies were diluted 1:1000. Antibodies were diluted in a PBS solution containing 7% (v/v) FCS to block unspecific binding, 50 mM glycine to block formaldehyde used for fixation, 0.2% (v/v) saponin to permeabilize cells, and 0.02% (v/v) NaN3 to preserve antibodies for later use.
The next day cells were washed 10 minutes in PBS followed by washing in PBS with 1% (w/v) BSA for 20 minutes. Cells were then incubated with secondary antibodies diluted in PBS with 1% (w/v) BSA for one hour at room temperature. Goat anti-rabbit IgG antibodies conjugated to Alexa 488 were diluted 1:1000 for untransfected cells and 1:2000 for transfected cells. Goat anti-mouse IgG antibodies conjugated to Alexa 546 were diluted 1:1000. Finally cells were washed 3×7 minutes in PBS and mounted with fluorescent mounting medium. […]

Question: What does the source list for “ETTYDKILKNLSRNR (listed as Homo sapiens) [G2, GDNF fragment]”?
Answer: binding to the Ig1-2 modules of NCAM (SPR) (Ig1-2 modules of NCAM): Binding; binding to the GFRα1 receptor (SPR) (GFRα1 receptor): binding; neurite outgrowth, overall effect of treatment, neurons grown on NCAM-expressing fibroblasts (hippocampal neurons; co-culture on NCAM-expressing fibroblasts, GDNF 1-100 ng/ml, peptides 0.1-81 μg/ml): overall significant effect; neurite outgrowth, overall effect of treatment, neurons grown on control fibroblasts (hippocampal neurons; co-culture on control fibroblasts, GDNF 1-100 ng/ml, peptides 0.1-81 μg/ml): overall significant effect; difference between neurite outgrowth on control fibroblasts and on NCAM-expressing fibroblasts across concentrations (one-way ANOVA) (hippocampal neurons; difference per concentration, expressed as percentage of control): mean differences are not all the same
